Source: EP1953147A1, “HETEROCYCLIC COMPOUND AND MEDICINAL APPLICATION THEREOF” (priority 2005, dated 2007)

System: ΔG/SEAP/HCV E1E2
Experiment: Effect of test substance on cell infection with HCV pseudotype virus (SEAP reporter assay in HepG2 cells)
Format: cell-based
Conditions: Hepatitis C virus

COc1cc(OC)cc(-c2nn(-c3cc(N)ccc3C(F)(F)F)c(=O)c3c2CCN3CCO)c1 [Example 1-41, 6-(5-amino-2-trifluoromethyl-phenyl)-4-(3,5-dimethoxy-phenyl)-1-(2-hydroxy-ethyl)-1,2,3,6-tetrahydro-pyrrolo[2,3-d]pyridazin-7-one] was tested, and the IC50 was under 100 nM.

For COc1cc(OC)cc(-c2nn(-c3cc(N4CC(CO)C4)ccc3C(F)(F)F)c(=O)c3c2CCN3)c1 [Example 1-42, 4-(3,5-dimethoxy-phenyl)-6-[5-(3-hydroxymethyl-azetidin-1-yl)-2-trifluoromethyl-phenyl]-1,2,3,6-tetrahydro-pyrrolo[2,3-d]pyridazin-7-one], the IC50 was under 100 nM.

With COc1cc(OC)cc(-c2nn(-c3cc(NCC(CO)CO)ccc3C(F)(F)F)c(=O)c3c2CCN3CCO)c1 [Example 1-43, 4-(3,5-dimethoxy-phenyl)-1-(2-hydroxy-ethyl)-6-[5-(3-hydroxy-2-hydroxymethyl-propylamino)-2-trifluoromethyl-phenyl]-1,2,3,6-tetrahydro-pyrrolo[2,3-d]pyridazin-7-one] the IC50 was under 100 nM.

COc1cc(O)cc(-c2nn(-c3cc(N4CC(CO)C4)ccc3C(F)(F)F)c(=O)c3c2CCN3CCO)c1 [Example 1-44, 1-(2-hydroxy-ethyl)-4-(3-hydroxy-5-methoxyphenyl)-6-[5-(3-hydroxymethyl-azetidin-1-yl)-2-trifluoromethyl-phenyl]-1,2,3,6-tetrahydro-pyrrolo[2,3-d]pyridazin-7-one] showed an IC50 of under 100 nM.

Cc1cc(-c2cnco2)cc(-c2nn(-c3cc(N4CC[C@H](O)C4)ccc3C(F)(F)F)c(=O)c3c2CCC3)c1 [Example 2, 2-[5-((S)-3-hydroxy-pyrrolidin-1-yl)-2-trifluoromethyl-phenyl]-4-(3-methyl-5-oxazol-5-yl-phenyl)-2,5,6,7-tetrahydro-cyclopenta[d]pyridazin-1-one] showed an IC50 of under 100 nM.

With Cc1cc(-c2cnco2)cc(-c2nn(-c3cc(-c4cccnn4)ccc3C(F)(F)F)c(=O)c3c2CCC3)c1 [Example 3, 4-(3-methyl-5-oxazol-5-yl-phenyl)-2-(5-pyridazin-3-yl-2-trifluoromethyl-phenyl)-2,5,6,7-tetrahydro-cyclopenta[d]pyridazin-1-one] the IC50 was under 100 nM.

For Cc1cc(C)cc(-c2nn(-c3cc(N4CC[C@H](O)C4)ccc3C(F)(F)F)c(=O)c3c2CCC3)c1 [Example 4, 4-(3,5-dimethyl-phenyl)-2-[5-((S)-3-hydroxy-pyrrolidin-1-yl)-2-trifluoromethyl-phenyl]-2,5,6,7-tetrahydro-cyclopenta[d]pyridazin-1-one], the IC50 was under 100 nM.

Cc1cc(-c2cnco2)cc(-c2nn(-c3cc(-c4cccnn4)ccc3C(F)(F)F)c(=O)c3c2CC(C)N3)c1 (centres unmarked) [Example 5, 2-methyl-4-(3-methyl-5-oxazol-5-yl-phenyl)-6-(5-pyridazin-3-yl-2-trifluoromethyl-phenyl)-1,2,3,6-tetrahydro-pyrrolo[2,3-d]pyridazin-7-one] was tested, and the IC50 was under 100 nM.

For Cc1cc(-c2cnco2)cc(-c2nn(-c3cc(N4CC[C@H](O)C4)ccc3C(F)(F)F)c(=O)c3c2CC(C)(C)C3)c1 [Example 6, 2-[5-((S)-3-hydroxy-pyrrolidin-1-yl)-2-trifluoromethyl-phenyl]-6,6-dimethyl-4-(3-methyl-5-oxazol-5-yl-phenyl)-2,5,6,7-tetrahydro-cyclopenta[d]pyridazin-1-one], the IC50 was under 100 nM.

In the case of COc1cc(C)cc(-c2nn(-c3cc(N4CC[C@H](O)C4)ccc3C(F)(F)F)c(=O)c3c2CCC3)c1 [Example 7, 2-[5-((S)-3-hydroxy-pyrrolidin-1-yl)-2-trifluoromethyl-phenyl]-4-(3-methoxy-5-methyl-phenyl)-2,5,6,7-tetrahydro-cyclopenta[d]pyridazin-1-one], the IC50 is reported as under 100 nM.

For Cc1cc(C)cc(-c2nn(-c3cc(-c4cccnn4)ccc3C(F)(F)F)c(=O)c3c2CCC3)c1 [Example 8, 4-(3,5-dimethyl-phenyl)-2-(5-pyridazin-3-yl-2-trifluoromethyl-phenyl)-2,5,6,7-tetrahydro-cyclopenta[d]pyridazin-1-one], the IC50 was under 100 nM.
